Drawing on PubChem BioAssay AID179 (DTP/NCI, 2004), this text covers EC50, IC50 and outcome for 69 molecules.

Where “and” joins values, the source holds several entries; their conditions need not be identical. Identical values can stand only once. Calls of active or inactive are those of the source.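 How the source made its calls: active means compounds giving half or more protection of infected cells from virus-caused growth loss, again on retest; inactive means the rest.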 A value given as a limit tells only on which side of the number the result lay.

The experiment has as its system CEM cells HIV-1 protection, formazan growth assay. Kind of experiment: NCI AIDS Antiviral Assay. The note with it: for IC50: measured here: growth of uninfected CEM cells. The protocol: The ability of compounds to protect human CEM cells from HIV-1 infection is measured as a screen for new compounds capable of inhibiting the HIV virus. Five concentrations of drug were tested on uninfected and infected cells and cell growth was measured using a soluble formazan assay. […] Compounds that provided at least 50% protection were retested. Compounds that provided at least 50% protection on retest were listed as moderately active. Compounds that reproducibly provided 100% protection were listed as confirmed active. […] Note that the inability to provide protection could be due to toxicity.

As to `Cn1c(N)c2c(=O)n(C)c3c(c2c(C#N)c1=O)CCSc1ccccc1-3`, the EC50 was > 9.33 µM and the IC50 is > 9.33 µM.

With `COC(=O)C1(Cc2ccccc2)Cc2cc3c(cc2C1=O)CCC3` (centres undefined), the EC50 is > 200 µM and the IC50 turned out to be 85.1 µM.

As for `O=C1CC(c2ccco2)C2(C(=O)NC(=O)NC2=O)C(c2ccco2)C1` (centres undefined), the EC50 was > 200 µM and the IC50 is > 200 µM.

Turning to `CC(=O)c1ccc(NCc2cc(O)ccc2O)cc1`, the EC50 was > 200 µM and the IC50 turned out to be 10.7 µM.

With `C/C(=N\N=C(/[Se])N1CCCCCC1)c1ccccn1`, the EC50 is > 81.3 µM and the IC50 amounted to 0.107 µM.

Turning to `Cc1cc2c(C(C)C)c(O)c(O)c(C=Nc3ccc(-c4ccccc4)cc3)c2c(O)c1-c1c(C)cc2c(C(C)C)c(O)c(O)c(C=Nc3ccc(-c4ccccc4)cc3)c2c1O`, the EC50 was 1.62 µM and the IC50 is > 200 µM.

Consider `Cc1cc(C#N)c(=S)n(C2OC(CO)C(O)C(O)C2O)c1C` (centres undefined), for which the EC50 was > 200 µM and the IC50 is > 200 µM.

Regarding `Cc1ccc(NC(=O)CC(=O)n2nc(-c3ccccc3)c(N=Nc3ccccc3Cl)c2-c2ccccc2)cc1`, the EC50 was > 9.77 µM and the IC50 was > 9.77 µM.

Regarding `C[PH+](C)CC[PH+](C)C.[C-]#[O+].[C-]#[O+].[C-]#[O+].[Fe]`, the EC50 is > 200 µM and the IC50 was > 200 µM.

For the molecule `CN1C(=O)C(O)CC1c1ccc(C(F)(F)F)cc1` (centres undefined), the outcome was inactive.

Turning to `COC1C(O)CC(=O)OC(C)C/C=C/C=C/C(OC2CCC(N(C)C)C(C)O2)C(C)CC(CC=O)C1OC1OC(C)C(OC2CC(C)(O)C(O)C(C)O2)C(N(C)C)C1O` (centres undefined), the EC50 was > 200 µM and the half-maximal inhibitory concentration (IC50) is > 200 µM.

For `N=C(N)c1csc([C@@H]2O[C@H](CO)[C@@H](O)[C@H]2O)n1`, the outcome was inactive.

For the molecule `COc1cccc2c(NNc3ccccc3)c3ccc([N+](=O)[O-])cc3nc12`, the EC50 was > 22.4 µM and the half-inhibitory concentration (IC50) is 16.2 µM.

Take `N=c1nnc2ccc(Cl)cc2n1O`: the EC50 was > 200 µM and the half-maximal inhibitory concentration (IC50) came to 33.1 µM.

In the case of `C=C1[C@H]2C(=O)[C@H]3[C@@H]4N(C)C5CC3([C@@H]1OC(C)=O)[C@@H](C2OC(C)=O)C41[C@H](OC(C)=O)C(OC(=O)c2ccccc2)C[C@@](C)(C=O)[C@@H]51` (some centres undefined), the outcome was inactive.

Turning to `Cc1cc2c(C)n(Cc3ccccc3Cl)nc2c(C(=O)O)c1C`, the EC50 is > 759 µM and the IC50 is 148 µM.

In the case of `O=C(CCC(=O)Nc1ccc(Cl)c(Cl)c1)CC(=O)c1ccc(Cl)cc1`, the result was inactive.

`O=C(O)C(CSC(c1ccccc1)(c1ccccc1)c1ccccc1)N=Cc1cccs1` (centres undefined): the EC50 is > 200 µM and the 50% inhibitory concentration (IC50) is 2.04 µM.

For the molecule `CCC1Sc2cc(OC)cc(NC=O)c2NC1=O` (centres undefined), the EC50 was 174 µM and the IC50 is > 200 µM.

Consider `CC(=C/c1ccccc1)/C=C1/SC(=S)N(C=C2C(=O)NC(=O)NC2=O)C1=O`, for which the EC50 was > 200 µM and the IC50 stood at 60.3 µM.

Take `CCCCCCSSCCCCCC`: the EC50 is > 200 µM and the IC50 was > 200 µM.

Turning to `Cc1ccc2c(c1-c1ccccc1)C(=O)OC2`, the result was inactive.

Take `O=C1c2ccccc2C(C2c3ccccc3C(=O)c3ccccc32)c2ccccc21`: the outcome was inactive.

As for `CCCCNC(=O)Sc1ccccc1C(=O)NCCS(N)(=O)=O`, the concentration for a half-maximal effect (EC50) is 0.141 µM and the 50% inhibitory concentration (IC50) amounted to 50.1 µM.

`CC(C)C1(O)C(c2ccccc2)=C(c2ccccc2)C(c2ccccc2)=C1c1ccccc1`: the result was inactive.

Take `S=c1[nH]nc(-c2ccccc2Cl)o1`: the EC50 was > 200 µM and the 50% inhibitory concentration (IC50) came to 195 µM.

Take `COc1cc(CNc2nc3ccc(C(F)(F)F)cc3nc2-c2ccccc2)cc(OC)c1OC`: the EC50 was > 11.2 µM and the IC50 was > 11.2 µM.

Regarding `CCCCOC(=O)c1cc(C(=CCC[C@H]2CC[C@@]3(C)[C@@H](CC[C@@H]4[C@@H]3CC[C@]3(C)[C@@H](C(C)CCCC(C)C)CC[C@@H]43)C2)c2cc(Cl)c(O)c(C(=O)OCCCC)c2)cc(Cl)c1O` (some centres undefined), the EC50 is > 100 µM and the half-maximal inhibitory concentration (IC50) is > 100 µM.

In the case of `Cc1ccc(N2C(=O)C3C=CC(n4[nH]c(=O)n(Cc5ccccc5)c4=O)CC3C2=O)cc1` (centres undefined), the EC50 is > 417 µM and the IC50 was > 417 µM.

On to `NC12CCC(CC1=O)C2` (centres undefined), for which the EC50 is > 200 µM and the IC50 is > 200 µM.

`CC(CC(C)(C)[N+](C)(C)C)[N+](C)(C)C` (centres undefined): the EC50 was > 200 µM and the IC50 is > 200 µM.

With `O=C(O)c1cccc(P(=O)(O)O)c1`, the EC50 is > 200 µM and the IC50 was > 200 µM.

`O=C(O)C12C=CC(C1)c1ccccc12` (centres undefined): the EC50 was > 251 µM and the IC50 is > 251 µM.

Take `COC(C(O)c1ccc2c(c1)OCO2)P(=O)(c1ccccc1)c1ccccc1` (centres undefined): the outcome was inactive.

For `CC(=O)OCC1OC(n2cc(F)c(=O)[nH]c2=O)C(NC(=O)N(CCCl)N=O)C(OC(C)=O)C1OC(C)=O` (centres undefined), the EC50 was > 457 µM and the IC50 amounted to 66.1 µM.

With `CCCCCCCc1ccc(OC2OC(COC(C)=O)C(OC(C)=O)C(OC(C)=O)C2OC(C)=O)cc1` (centres undefined), the EC50 is > 91.2 µM; the half-maximal inhibitory concentration (IC50) is 49 µM and > 85.1 µM.

With `CN1C(=O)/C(=N\n2c(-c3ccccc3)nc3ccccc3c2=O)c2ccccc21`, the EC50 is > 200 µM and the IC50 was > 200 µM.

Regarding `C=CC(C)(C)N1c2ccccc2[C@]2(O)C[C@@H]3C(=O)N4/C=C\C(C)(C)c5[nH]c6ccccc6c5/C=C\4C(=O)N3[C@H]12`, the result was inactive.

With `O=S(=O)(O)c1cc(N=Nc2ccc(/C=C/c3ccc(N=Nc4cc(S(=O)(=O)O)c5cccnc5c4O)cc3S(=O)(=O)O)c(S(=O)(=O)O)c2)ccc1/C=C/c1ccc(N=Nc2cc(S(=O)(=O)O)c3cccnc3c2O)cc1S(=O)(=O)O`, the EC50 was 0.832 µM and the IC50 was determined as 1.95 µM.

For the molecule `CCCCN(CCCC)C(=O)COc1cc2c(O)c3c(O)c(C)c4c(c13)C(=O)C(C)(O/C=C/C(OC)C(C)C(OC(C)=O)C(C)C(O)C(C)C(O)C(C)/C=C/C=C(\C)C(=O)N2)O4` (centres undefined), the EC50 was > 91.2 µM and the IC50 came to 11 µM.

Regarding `O=C1c2cccc(NCCNCCO)c2C(=O)c2cccc(NCCNCCO)c21`, the outcome was inactive.

In the case of `CC(C)(C)OC(=O)C1/C(=C/CO)CN1C(=O)OC(C)(C)C` (centres undefined), the EC50 is > 200 µM and the IC50 was 43.7 µM.

As for `CC(=O)N1c2cc(N=NN(C)C)ccc2NC(=O)CC1C` (centres undefined), the EC50 was > 200 µM and the IC50 was > 200 µM.

In the case of `NC1=C(O)c2cccc3cccc(c23)C1=O`, the result was inactive.

In the case of `CC(C(=O)c1ccccc1)C1(O)C(=O)Nc2ccccc21` (centres undefined), the outcome was inactive.

As to `CC(=O)/C(=C/c1cccc(F)c1)c1ccccc1`, the EC50 is > 56.2 µM and the IC50 was > 56.2 µM.

On to `CC(=O)CC(=O)N1CCSC1=S`, for which the EC50 was 126 µM and the IC50 was > 200 µM.

Regarding `O=c1c2cc3ccccc3n2c(=O)c2cc3ccccc3n12`, the EC50 was > 5.01 µM and the IC50 was > 5.01 µM.

For the molecule `CCP(=O)(CC)C(Cl)(Cl)C(=O)NC`, the EC50 was > 200 µM and the IC50 is > 200 µM.

As for `O=[N+]([O-])c1ccc(/C=C/c2csnn2)cc1`, the EC50 was > 562 µM and the concentration for half-maximal inhibition (IC50) stood at 229 µM.

`CC1(C)CC(=O)C(CCC(=O)/C=C/c2ccccc2)C(=O)C1`: the EC50 is > 87.1 µM and the IC50 is > 87.1 µM.

With `C=CC[P+](CC=C)(c1ccccc1)c1ccccc1`, the EC50 is > 200 µM and the 50% inhibitory concentration (IC50) was 1.91 µM.

As for `Cc1nc2c(nc1C)C(=O)C(N1CCCCC1)=CC2=O`, the outcome was inactive.

As for `CN(C)CC(C)(C)C(/C=C/c1ccccc1)=N\Nc1ccccc1`, the outcome was inactive.

On to `O=[N+]([O-])c1ccc(COc2cccc3cccnc23)cc1`, for which the EC50 was > 200 µM and the half-inhibitory concentration (IC50) was 2.14 µM.

Consider `C=C1C(=O)O[C@H]2C1C(OC(=O)/C(C)=C/C)C(OC(C)=O)[C@@](C)(O)C1C2C(C)=C[C@H]1OC(C)=O` (some centres undefined), for which the EC50 is > 141 µM and the IC50 was found to be 6.17 µM.

For the molecule `C=C(C)[C@@H]1CC[C@@]2(C)[C@H]1[C@H]1CCC3[C@@]4(C)CC[C@H](O)C(C)(C)[C@@H]4CC[C@@]3(C)[C@]1(C)C[C@@H]2O` (some centres undefined), the EC50 is > 100 µM and the IC50 is 66.1 µM.

Take `S=c1[nH]c(=S)c2nnn(-c3ccccc3)c2[nH]1`: the EC50 was > 138 µM and the IC50 turned out to be 126 µM.

As to `c1ccc2c(c1)nn1c3ccc4nonc4c3[n-][n+]21`, the outcome was inactive.

Regarding `C[C@@H]1CC(O)C2(O)[C@@]13C[C@@H](OC(=O)[C@@H]3O)[C@](C)(O)[C@@]21COC1=O` (some centres undefined), the outcome was inactive.

On to `Cc1c(-c2coc(-c3ccccc3)n2)c(=O)n(-c2ccccc2)n1C`, for which the EC50 is > 107 µM and the half-maximal inhibitory concentration (IC50) was > 107 µM.

On to `O=C(O)Cc1ccc(N2N=C(c3ccccc3)CC2=O)cc1`, for which the EC50 is > 200 µM and the IC50 is > 200 µM.

`Cc1cc(=O)n(-c2ccccc2C)c(C)n1`: the EC50 was > 1000 µM and the IC50 was > 1000 µM.

For the molecule `COC1=CC(=O)OC(/C=C(C)/C=C/C2=C(C)CCCC2(C)C)C1` (centres undefined), the result was inactive.

Regarding `COc1ccc2c(c1)CC/C2=C\CC1(C)C(=O)CCC1=O`, the EC50 is > 200 µM and the IC50 is 107 µM.

On to `C=C(CN(C)C)C(=O)c1ccc(OC)cc1`, for which the outcome was inactive.

Consider `c1ccc(C2OC3(CCC[C@H]4C[C@H]43)O[C@H]2c2ccccc2)cc1` (some centres undefined), for which the result was inactive.

As for `CC1=CCCC2C1(C)CCC(C)C2(C)Cc1cc(O)ccc1O` (centres undefined), the EC50 is > 100 µM and the IC50 is 12 µM.

Consider `CN(C)[C@@H]1C(=O)C(C(=O)NCN2CCN(C(=N)N=C(N)N)CC2)=C(O)[C@@]2(O)C(=O)C3=C(O)c4c(O)cccc4[C@@](C)(O)[C@H]3C[C@@H]12`, for which the EC50 is > 37.2 µM and the IC50 is 0.257 µM.

Broadly, the EC50 is the concentration that produces a half-maximal response. A word on the IC50: it is the point on the concentration scale where inhibition reaches its midpoint. A lower IC50 goes with higher potency.
